Laboratory results published in article PMC6017062, “Probing the Inhibitor versus Chaperone Properties of sp^2-Iminosugars towards Human β-Glucocerebrosidase: A Picomolar Chaperone for Gaucher Disease” (Molecules : A Journal of Synthetic Chemistry and Natural …, 2018).

Assays:
[1] = target: T1, α-glucosidase maltase (yeast maltase; α-Glcase1) (Saccharomyces cerevisiae, UniProt P53341); assay: Commercial glycosidase inhibition: maltase (yeast maltase; α-Glcase1); type: biochemical; details: mean ± SD, three determinations; competitive; n.i. = no inhibition detected at 1 mM
T1 construct: purchased
T1 sequence (P53341 whole entry): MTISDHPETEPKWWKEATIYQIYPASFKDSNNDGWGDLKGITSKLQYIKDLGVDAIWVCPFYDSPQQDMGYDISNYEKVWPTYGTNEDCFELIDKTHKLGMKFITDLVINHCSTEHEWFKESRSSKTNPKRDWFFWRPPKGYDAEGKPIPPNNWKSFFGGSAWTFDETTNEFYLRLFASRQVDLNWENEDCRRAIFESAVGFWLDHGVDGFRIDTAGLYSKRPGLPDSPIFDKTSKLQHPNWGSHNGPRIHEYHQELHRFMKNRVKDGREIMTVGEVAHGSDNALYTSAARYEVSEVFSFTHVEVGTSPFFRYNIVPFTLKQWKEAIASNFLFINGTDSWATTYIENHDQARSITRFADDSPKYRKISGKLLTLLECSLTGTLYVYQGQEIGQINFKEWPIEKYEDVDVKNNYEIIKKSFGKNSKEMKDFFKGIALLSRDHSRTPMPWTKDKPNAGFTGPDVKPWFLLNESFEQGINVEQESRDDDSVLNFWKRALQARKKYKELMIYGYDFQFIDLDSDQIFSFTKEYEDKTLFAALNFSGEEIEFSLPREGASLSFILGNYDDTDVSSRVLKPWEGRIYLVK
Description: (§1) We first evaluated the inhibitory properties of the new nonreducing mono- and bicyclic sp^2-iminosugars 4–15 against a panel of commercial glycosidases that included the α-glucosidases maltase (yeast maltase; α-Glcase1) and isomaltase (α-Glcase2) from Saccharomyces cerevisiae and amyloglucosidase (α-Glcase3) from Aspergillus niger, the β-glucosidases from almonds (β-Glcase1) and bovine liver (β-Glcase2), the α-galactosidase from green coffee beans (α-Galase), the β-galactosidase from Escherichia coli (β-Galase), and the α-mannosidase from Jack bean (α-Manase).
(§2) Inhibition constant (Ki) values were determined by spectrophotometrically measuring the residual hydrolytic activities of the glycosidases against the respective o- (for β-galactosidase from E. coli) or p-nitrophenyl α- or β-D-glycopyranoside (for other glycosidases) in the presence of the iminosugars. Each assay was performed in phosphate buffer or phosphate-citrate buffer (for α- or β-mannosidase and amyloglucosidase) at the optimal pH for the enzymes. The reactions were initiated by addition of the enzyme to a solution of the substrate in the absence or presence of various inhibitor concentrations. The mixture was incubated for 10–30 min at 37 °C or 55 °C (for amyloglucosidase) and the reaction was quenched by addition of 1 M Na2CO3. Reaction times were appropriate to obtain 10–20% conversion of the substrate in order to achieve linear rates. The absorbance of the resulting mixture was determined at 405 nm. Approximate value of Ki was determined from the slope of Dixon plots using a fixed concentration of substrate (around the Km value for the different glycosidases) and various concentrations of inhibitor. Full Ki determinations and enzyme inhibition mode were determined from the slope of Lineweaver–Burk plots and double reciprocal analysis.

isomaltase (α-Glcase2) = target: T2, isomaltase (α-Glcase2) (Saccharomyces cerevisiae, UniProt P53051); assay: Commercial glycosidase inhibition: isomaltase (α-Glcase2); type: biochemical; details: mean ± SD, three determinations; competitive; n.i. = no inhibition detected at 1 mM
T2 construct: purchased
T2 sequence (P53051 whole entry): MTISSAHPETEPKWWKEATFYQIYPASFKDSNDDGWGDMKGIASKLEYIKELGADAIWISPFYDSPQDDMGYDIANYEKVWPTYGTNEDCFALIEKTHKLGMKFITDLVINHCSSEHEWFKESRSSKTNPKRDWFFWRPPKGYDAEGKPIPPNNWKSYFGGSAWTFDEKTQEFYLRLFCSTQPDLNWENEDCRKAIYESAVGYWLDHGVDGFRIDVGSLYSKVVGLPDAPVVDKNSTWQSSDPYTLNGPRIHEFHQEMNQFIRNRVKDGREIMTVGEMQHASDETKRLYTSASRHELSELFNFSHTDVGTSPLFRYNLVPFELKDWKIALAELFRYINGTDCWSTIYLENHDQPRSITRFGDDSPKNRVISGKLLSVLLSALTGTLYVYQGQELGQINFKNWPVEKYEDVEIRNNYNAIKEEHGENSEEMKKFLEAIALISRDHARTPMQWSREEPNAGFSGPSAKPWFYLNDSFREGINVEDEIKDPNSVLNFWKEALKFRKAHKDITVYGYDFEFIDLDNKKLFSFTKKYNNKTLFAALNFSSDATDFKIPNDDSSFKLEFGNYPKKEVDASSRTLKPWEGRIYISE
Description: as §1, §2

[2] = target: T3, α-galactosidase from green coffee beans (α-Galase) (Coffea arabica, UniProt Q42656); assay: Commercial glycosidase inhibition: α-galactosidase from green coffee beans (α-Galase); type: biochemical; details: mean ± SD, three determinations; competitive; n.i. = no inhibition detected at 1 mM
T3 construct: purchased
T3 sequence (Q42656 16-378): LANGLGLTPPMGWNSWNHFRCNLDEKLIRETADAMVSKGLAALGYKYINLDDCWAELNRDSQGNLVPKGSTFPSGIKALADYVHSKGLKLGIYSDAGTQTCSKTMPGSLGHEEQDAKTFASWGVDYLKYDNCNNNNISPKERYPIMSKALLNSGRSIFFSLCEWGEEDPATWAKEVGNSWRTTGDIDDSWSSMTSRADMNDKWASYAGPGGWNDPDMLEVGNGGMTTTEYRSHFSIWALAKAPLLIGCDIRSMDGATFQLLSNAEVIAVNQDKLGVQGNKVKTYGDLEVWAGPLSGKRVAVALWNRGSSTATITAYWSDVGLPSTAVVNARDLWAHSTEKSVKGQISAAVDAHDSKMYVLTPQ
Description: as §1, §2

[3] = target: T4, β-galactosidase (β-Galase) (Escherichia coli, UniProt P00722); assay: Commercial glycosidase inhibition: β-galactosidase from E. coli (β-Galase); type: biochemical; details: mean ± SD, three determinations; competitive; n.i. = no inhibition detected at 1 mM
T4 construct: purchased
T4 sequence (P00722 2-1024 limits assumed): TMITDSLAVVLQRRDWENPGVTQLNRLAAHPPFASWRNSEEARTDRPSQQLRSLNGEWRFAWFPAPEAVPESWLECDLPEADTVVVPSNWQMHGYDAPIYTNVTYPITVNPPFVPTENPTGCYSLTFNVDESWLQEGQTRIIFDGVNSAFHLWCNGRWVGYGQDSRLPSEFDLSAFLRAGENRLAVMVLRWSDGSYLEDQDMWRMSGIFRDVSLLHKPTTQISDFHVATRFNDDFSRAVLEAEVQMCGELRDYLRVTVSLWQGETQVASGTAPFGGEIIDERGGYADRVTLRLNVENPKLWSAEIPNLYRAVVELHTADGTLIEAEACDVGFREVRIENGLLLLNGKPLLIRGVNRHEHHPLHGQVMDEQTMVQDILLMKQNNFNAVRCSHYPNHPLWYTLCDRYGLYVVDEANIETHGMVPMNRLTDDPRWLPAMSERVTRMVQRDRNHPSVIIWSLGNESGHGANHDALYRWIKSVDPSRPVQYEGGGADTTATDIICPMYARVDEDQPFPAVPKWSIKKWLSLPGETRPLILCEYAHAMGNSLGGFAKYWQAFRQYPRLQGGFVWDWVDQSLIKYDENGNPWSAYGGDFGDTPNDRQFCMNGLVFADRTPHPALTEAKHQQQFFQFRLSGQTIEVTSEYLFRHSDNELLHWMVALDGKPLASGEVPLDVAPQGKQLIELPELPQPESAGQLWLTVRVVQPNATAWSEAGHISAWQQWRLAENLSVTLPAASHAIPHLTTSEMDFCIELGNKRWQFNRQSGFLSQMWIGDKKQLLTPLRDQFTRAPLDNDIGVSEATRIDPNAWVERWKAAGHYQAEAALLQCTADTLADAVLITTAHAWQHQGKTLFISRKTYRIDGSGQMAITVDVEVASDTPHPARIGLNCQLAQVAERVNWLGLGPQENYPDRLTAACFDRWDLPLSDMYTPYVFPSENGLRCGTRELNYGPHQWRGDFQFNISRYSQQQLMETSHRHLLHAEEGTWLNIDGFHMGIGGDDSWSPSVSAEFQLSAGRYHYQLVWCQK
Description: as §1, §2

[4] = system: β-glucosidases (almonds/bovine enzymes); details: 4 compared with its DIJ epimer 7
Description: as §1
Inhibition constant (Ki) values were determined by spectrophotometrically measuring the residual hydrolytic activities of the glycosidases against the respective o- (for β-galactosidase from E. coli) or p-nitrophenyl α- or β-D-glycopyranoside (for other glycosidases) in the presence of the iminosugars. […] The absorbance of the resulting mixture was determined at 405 nm. Approximate value of Ki was determined from the slope of Dixon plots using a fixed concentration of substrate (around the Km value for the different glycosidases) and various concentrations of inhibitor. Full Ki determinations and enzyme inhibition mode were determined from the slope of Lineweaver–Burk plots and double reciprocal analysis.

pKa determination = type: physicochemical
N188S/G183W mutant GCase = target: T5, N188S/G183W mutant GCase (Homo sapiens, UniProt P04062, N227S); assay: Chaperone test in N188S/G183W type 3 Gaucher patient fibroblasts; type: cell-based
T5 construct: endogenous in cells; host or cells: skin fibroblasts of N188S/G183W type 3 Gaucher patients
T5 sequence (P04062 40-536 N227S): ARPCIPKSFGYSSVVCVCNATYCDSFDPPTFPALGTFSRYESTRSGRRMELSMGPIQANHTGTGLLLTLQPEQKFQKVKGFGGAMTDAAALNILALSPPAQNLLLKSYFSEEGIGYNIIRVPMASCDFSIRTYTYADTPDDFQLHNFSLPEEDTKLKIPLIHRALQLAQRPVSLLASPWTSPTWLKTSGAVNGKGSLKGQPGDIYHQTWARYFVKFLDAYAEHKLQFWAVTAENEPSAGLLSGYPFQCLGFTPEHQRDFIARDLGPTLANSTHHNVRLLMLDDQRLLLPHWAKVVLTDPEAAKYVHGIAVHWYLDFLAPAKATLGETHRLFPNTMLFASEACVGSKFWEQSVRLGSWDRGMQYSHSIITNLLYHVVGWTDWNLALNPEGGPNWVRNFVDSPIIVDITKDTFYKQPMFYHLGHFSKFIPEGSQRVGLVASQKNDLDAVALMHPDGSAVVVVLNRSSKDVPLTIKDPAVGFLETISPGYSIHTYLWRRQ
Description: To test the chaperoning capabilities, Gaucher fibroblasts from patients hosting the adult neuronopathic (type 3) Gaucher disease-associated N188S/G183W mutant GCase were employed. It is worth mentioning that the neuronopathic clinical subtypes of Gaucher disease remain currently at orphan status, given the inability of the recombinant enzyme used in enzyme replacement therapy or the glucosylceramide synthase inhibitor Zavesca® used in substrate reduction therapy to cross the blood–brain barrier. This mutation is located in the catalytic domain (domain III) of GCase and has been previously found to be responsive to sp^2-iminosugar-type chaperones. […] Yet, the activity trend as a function of the chaperone concentration was starkly different between them. Thus, the nonreducing representatives 3 and 4 reached the maximum chaperoning effect at 200 nM and as low as 2 nM concentration, respectively, as compared with 20 and 2 μM for the reducing homologues 1 and 2.
Normal and Gaucher disease patients’ skin fibroblasts were cultured in Dulbecco modified Eagle’s medium (WAKO, Richmond, VA, USA) supplemented with 10% fetal bovine serum (Nichirei Biosci. Inc., Tokyo, Japan) at 37 °C in 5% CO2. For measurement of chaperone activities, fibroblasts were plated onto 35 mm dishes at 50,000 cells per dish. After 24 h incubation, the medium with the indicated concentrations of compound was applied and cells were cultured for 96 h. Then, the lysates in 0.1% Triton-X100/distilled H2O were collected from the cells and assayed for lysosomal GCase as described above. To measure the cytotoxic effect of the compounds, normal human fibroblasts were plated onto 35 mm dishes at 15,000 cells per dish and incubated overnight. Then, the medium was changed with or without compounds. After 24 h incubation, the supernatant of the cells was collected and measured by the lactate dehydrogenase assay (WAKO, Richmond, VA, USA). All the cell lines used were tested for mycoplasma contamination before conducting the chaperone and toxicity assays.

[5] = N188S/G183W Gaucher fibroblasts

Q: What does the source list for `CCCCCCCCN=C1SCC2C(O)C(O)C(O)CN12` (stereo not drawn) [Compound 4, 1-Deoxy-6-thio-5-N,6-S-(N′-octyliminomethylidene)nojirimycin]?
A: Ki α-Glcase1 [1]: n.i. ^1; Ki α-Glcase2 (isomaltase (α-Glcase2)): n.i.; Ki α-Galase [2]: n.i.; Ki β-Galase [3]: n.i.; fold stronger inhibition potency towards the β-glucosidases [4]: 100 fold; pKa (pKa determination): 8.3; N188S/G183W GCase activity enhancement at 20 pM (N188S/G183W mutant GCase; 20 pM, patient fibroblasts): over 70%; N188S/G183W GCase activity enhancement at 2 nM (N188S/G183W mutant GCase; 2 nM, patient fibroblasts): 300%; concentration of maximum chaperoning effect (N188S/G183W mutant GCase; [5]): 2 nM; concentration over which chaperone/inhibitor balance is unfavorable (net decrease in mutant enzyme activity vs control) (N188S/G183W mutant GCase; [5]): > 0.2 µM
